Laboratory results taken from publication PMC10794144, “A novel antibiotic class targeting the lipopolysaccharide transporter” (Nature, 2024).
Read-outs that look alike come from different tables or passages of the source.

Experiments:
A. baumannii ACC01073 [1] = assay: Neutropaenic mouse lung infection (pneumonia) model; type: in vivo; conditions: for CFU/lungs, average / Log CFU/lungs, average (bacterial load): n = 6
Procedure: An intramuscular inoculation of a bacterial suspension of approximately 10^6 CFU per thigh was used to induce the infection. Treatment started 2 h after infection. […] Thigh bacterial burden was determined after 24 h of treatment. In the pneumonia model, an intratracheal inoculation of approximately 10^7 CFU per lung was used to induce the infection. Treatment started 2 h after infection. […] Lung bacterial burden was determined after 24 h treatment. Standard of care antibiotic was tested at a single dose in both infection models. GraphPad Prism 8 was used for graphical presentation and to analyse data.

A. baumannii ACC01073 [2] = assay: Time–kill kinetics; type: cell-based, Acinetobacter baumannii
Procedure: Time–kill studies were performed according to the CLSI standard procedure M26-A[40]. […] A. baumannii colonies from agar plates were inoculated into CAMHB supplemented with 20% human serum and incubated overnight at 35 ± 2 °C in ambient air under shaking. The overnight culture was diluted 1:10,000 and further incubated for 2 h. A total of 5 ml of the bacterial log-phase suspension was transferred into six-well plates. […] The six-well plates were incubated at 35 ± 2 °C in ambient air under shaking (100 rpm) for 24 h, 150 μl was withdrawn at the selected timepoints (0, 2, 4, 8, 12, 16, 20 and 24 h), diluted, plated on a Mueller–Hinton agar plate and incubated overnight for CFU determination. GraphPad Prism v.8 was used for graphical presentation of the data.

Aqueous solubility = type: physicochemical; conditions: pH 1–9

With `CN1C(=O)[C@H](CCCCN)NC(=O)[C@H](CCCN)NCc2cccnc2Sc2cccc(-c3ccc(C(=O)O)cc3)c2CNC(=O)[C@@H]1Cc1c[nH]c2ccccc12` [zosurabalpin] the “ΔLog CFU/lungs vs A/0h” value (A. baumannii ACC01073 [1]; 6 mg/kg/day s.c. q6h, 24 h) was 1.37, the “CFU/lungs, average” value (A. baumannii ACC01073 [1]; 6 mg/kg/day s.c. q6h, 24 h) was 1.26E+09 and the “Log CFU/lungs, average (bacterial load)” value (A. baumannii ACC01073 [1]; 6 mg/kg/day s.c. q6h, 24 h) was 9.06. The “ΔLog CFU/lungs vs A/0h” value (A. baumannii ACC01073 [1]; 20 mg/kg/day q6h) was 1.47, the “CFU/lungs, average” value (A. baumannii ACC01073 [1]; 20 mg/kg/day q6h) was 1.49E+09 and the “Log CFU/lungs, average (bacterial load)” value (A. baumannii ACC01073 [1]; 20 mg/kg/day q6h) was 9.16. For the same compound, the “ΔLog CFU/lungs vs A/0h” value (A. baumannii ACC01073 [1]; 60 mg/kg/day q6h) was 1.13, the “CFU/lungs, average” value (A. baumannii ACC01073 [1]; 60 mg/kg/day q6h) was 8.46E+08 and the “Log CFU/lungs, average (bacterial load)” value (A. baumannii ACC01073 [1]; 60 mg/kg/day q6h) was 8.82. The “ΔLog CFU/lungs vs A/0h” value (A. baumannii ACC01073 [1]; 100 mg/kg/day q6h) was -0.05, the “CFU/lungs, average” value (A. baumannii ACC01073 [1]; 100 mg/kg/day q6h) was 1.38E+08 and the “Log CFU/lungs, average (bacterial load)” value (A. baumannii ACC01073 [1]; 100 mg/kg/day q6h) was 7.64. The “ΔLog CFU/lungs vs A/0h” value (A. baumannii ACC01073 [1]; 160 mg/kg/day q6h) was -1.08, the “CFU/lungs, average” value (A. baumannii ACC01073 [1]; 160 mg/kg/day q6h) was 9.40E+06 and the “Log CFU/lungs, average (bacterial load)” value (A. baumannii ACC01073 [1]; 160 mg/kg/day q6h) was 6.61. The “ΔLog CFU/lungs vs A/0h” value (A. baumannii ACC01073 [1]; 240 mg/kg/day q6h) was -2.52, the “CFU/lungs, average” value (A. baumannii ACC01073 [1]; 240 mg/kg/day q6h) was 4.14E+05 and the “Log CFU/lungs, average (bacterial load)” value (A. baumannii ACC01073 [1]; 240 mg/kg/day q6h) was 5.17. For the same compound, the “Reduction in CFUs in lungs” value (A. baumannii ACC01073 [1]; 360 mg per kg per day) was over 5 log, the “ΔLog CFU/lungs vs A/0h” value (A. baumannii ACC01073 [1]; 360 mg/kg/day q6h) was -4.81 and the “CFU/lungs, average” value (A. baumannii ACC01073 [1]; 360 mg/kg/day q6h) was 9.88E+02. The “Log CFU/lungs, average (bacterial load)” value (A. baumannii ACC01073 [1]; 360 mg/kg/day q6h) was 2.88, the “Time–kill outcome” value (A. baumannii ACC01073 [2]) was “bactericidal effect above 4× MIC” and the aqueous solubility (Aqueous solubility) was over 100 mg/mL. For the same compound, the MIC_WT (A. baumannii; A. baumannii ATCC 17978, wild type (parental strain)) was 0.06 µM, the MIC_WT (A. baumannii; A. baumannii ATCC 19606, wild type (parental strain)) was 0.25 µM and the MIC_WT (A. baumannii; A. baumannii ROB08705, wild type (parental strain)) was 0.13 µM. The MIC_WT (A. baumannii; A. baumannii ROB08706, wild type (parental strain)) was 1.0 µM, the MIC_value (A. baumannii; ATCC 17978 clone 1D1, run AB17978_3280_HS, evolved in HS/MHB) was 128 µM and the MIC_value (A. baumannii; ATCC 17978 clone 1D3, run AB17978_3280_HS, evolved in HS/MHB) was 128 µM. The MIC_value (A. baumannii; ATCC 17978 clone 1E3, run AB17978_3280_MHB, evolved in MHB) was 16 µM, the MIC_value (A. baumannii; ATCC 17978 clone 1F1, run AB17978_3280_MHB, evolved in MHB) was over 128 µM and the MIC_value (A. baumannii; ATCC 17978 clone 2C1, run AB17978_3280_HS, evolved in HS/MHB) was 16 µM. For the same compound, the MIC_value (A. baumannii; ATCC 17978 clone 2C1, run AB17978_3280_MHB, evolved in MHB) was 2 µM, the MIC_value (A. baumannii; ATCC 17978 clone 2C2, run AB17978_3280_HS, evolved in HS/MHB) was 8 µM and the MIC_value (A. baumannii; ATCC 17978 clone 2C3, run AB17978_3280_HS, evolved in HS/MHB) was 4 µM. The MIC_value (A. baumannii; ATCC 17978 clone 2C4, run AB17978_3280_MHB, evolved in MHB) was 8 µM, the MIC_value (A. baumannii; ATCC 17978 clone 2D2, run AB17978_3280_MHB, evolved in MHB) was 8 µM and the MIC_value (A. baumannii; ATCC 17978 clone 2D3, run AB17978_3280_HS, evolved in HS/MHB) was 32 µM. For the same compound, the MIC_value (A. baumannii; ATCC 17978 clone 3D1, run AB17978_3280_HS, evolved in HS/MHB) was 32 µM, the MIC_value (A. baumannii; ATCC 17978 clone 4D1, run AB17978_3280_MHB, evolved in MHB) was 64 µM and the MIC_value (A. baumannii; ATCC 17978 clone 5B1, run AB17978_3280_HS, evolved in HS/MHB) was 1 µM. The MIC_value (A. baumannii; ATCC 17978 clone 5C1, run AB17978_3280_HS, evolved in HS/MHB) was 64 µM, the MIC_value (A. baumannii; ATCC 17978 clone 5E1, run AB17978_3280_MHB, evolved in MHB) was over 32 µM and the MIC_value (A. baumannii; ATCC 17978 clone 6E1, run AB17978_3280_HS, evolved in HS/MHB) was 32 µM. For the same compound, the MIC_value (A. baumannii; ATCC 17978 clone 6E1, run AB17978_3280_MHB, evolved in MHB) was 4 µM, the MIC_value (A. baumannii; ATCC 17978 clone 6E2, run AB17978_3280_HS, evolved in HS/MHB) was 16 µM and the MIC_value (A. baumannii; ATCC 17978 clone 6E3, run AB17978_3280_HS, evolved in HS/MHB) was 32 µM. For the same compound, the MIC_value (A. baumannii; ATCC 17978 clone 6E4, run AB17978_3280_HS, evolved in HS/MHB) was 32 µM, the MIC_value (A. baumannii; ATCC 17978 clone 6E4, run AB17978_3280_MHB, evolved in MHB) was 8 µM and the MIC_value (A. baumannii; ATCC 17978 clone 6E5, run AB17978_3280_HS, evolved in HS/MHB) was 32 µM. The MIC_value (A. baumannii; ATCC 17978 clone 6E6, run AB17978_3280_HS, evolved in HS/MHB) was 8 µM, the MIC_value (A. baumannii; ATCC 17978 clone 6E9, run AB17978_3280_HS, evolved in HS/MHB) was 8 µM and the MIC_value (A. baumannii; ATCC 19606 clone 1C2, run AB19606_3280_HS, evolved in HS_MHB) was 8 µM. It also gave an MIC_value (A. baumannii; ATCC 19606 clone 1C3, run AB19606_3280_HS, evolved in HS_MHB) of 16 µM.
